Here are results for 17 molecules from paper PMC12377105, “Development of eugenol derivatives with 5-LOX inhibitory activity” (Journal of Enzyme Inhibition and Medicinal Chemistry, 2025).

Molecules are shown by their SMILES. Several values for one entry are separate records, joined by “and”; a condition that tells them apart may be missing. Equal entries are not always repeated.

The target of the assay is T1, soybean lipoxygenase (model enzyme for 5-LOX) (Glycine max, UniProt P08170).
T1 sequence (P08170 1-839): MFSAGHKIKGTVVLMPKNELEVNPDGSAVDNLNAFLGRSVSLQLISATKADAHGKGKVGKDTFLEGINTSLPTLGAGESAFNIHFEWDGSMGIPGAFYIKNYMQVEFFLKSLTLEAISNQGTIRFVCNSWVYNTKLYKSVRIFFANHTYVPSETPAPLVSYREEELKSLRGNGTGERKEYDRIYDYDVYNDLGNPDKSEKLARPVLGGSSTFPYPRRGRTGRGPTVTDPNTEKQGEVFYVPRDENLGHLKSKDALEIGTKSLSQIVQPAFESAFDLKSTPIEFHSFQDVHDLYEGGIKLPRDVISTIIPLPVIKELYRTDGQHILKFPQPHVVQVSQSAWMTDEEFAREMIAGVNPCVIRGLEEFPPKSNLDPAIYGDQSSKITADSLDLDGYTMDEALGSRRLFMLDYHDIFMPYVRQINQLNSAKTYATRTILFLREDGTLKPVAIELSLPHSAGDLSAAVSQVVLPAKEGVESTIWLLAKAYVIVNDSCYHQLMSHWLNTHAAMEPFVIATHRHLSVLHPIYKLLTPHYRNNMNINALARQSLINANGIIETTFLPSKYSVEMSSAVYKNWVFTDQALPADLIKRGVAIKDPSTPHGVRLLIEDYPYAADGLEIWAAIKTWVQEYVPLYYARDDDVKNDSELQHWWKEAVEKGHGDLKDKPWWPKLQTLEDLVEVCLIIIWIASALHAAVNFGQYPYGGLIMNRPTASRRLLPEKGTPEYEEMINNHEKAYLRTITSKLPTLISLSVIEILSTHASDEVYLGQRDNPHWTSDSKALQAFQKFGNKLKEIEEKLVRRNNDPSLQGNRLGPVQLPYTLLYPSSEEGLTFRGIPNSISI
Description: In vitro 5-LOX inhibition assay (soybean lipoxygenase, oxidation of linoleic acid at 234 nm). In kind it is biochemical. The settings on record: for IC50: dose-response, concentration range 6.25-100 µM. On the procedure:
Soybean lipoxygenase (linoleate 13S-lipoxygenase) is widely accepted as a model enzyme to screen compounds for LOX inhibition due to the high degree of binding site similarity between plant LOXs and animal 5-LOX[20]. LOX inhibition was assessed at room temperature, following the oxidation of linoleic acid to 13-hydroperoxylinoleic acid at 234 nm, according to a described procedure. The assay was performed by adding 20 μL of each eugenol derivative (1.3 mM) dissolved in phosphate buffer, 200 μL of phosphate buffer (pH 9.0) and 20 μL of soybean lipoxygenase solution (100 U). After 5 min of incubation at room temperature, the reaction was initiated by the addition of 20 μL of linoleic acid (4.18 mM in ethanol), absorbance being monitored during 3 min, using a Multiskan GO plate reader (Thermo Fisher Scientific; Waltham, MA, USA). The inhibition of enzyme activity was then calculated by comparing the reaction rate with the control (no compound). Quercetin (50 μM, final concentration) was used as a positive control.

Setting [1] is: 100 µM, cell-free preliminary screening.

Usually inhibition stands for the relative decrease from the control value, in per cent. High values mean a strong effect, low ones a weak effect. Regarding `CCOCC(O)Cc1ccc(O)c(OC)c1` (stereo not drawn) [7b], the inhibition at 100 µM under setting [1] was about 30%.
`COc1ccc(NCC(O)Cc2ccc(O)c(OC)c2)cc1` (stereo not drawn) [8g]: the “5-LOX inhibitory activity (in words)” value under setting [1] is “statistically significant activity”.
On the same count and under the same terms, under `COc1cccc(NCC(O)Cc2ccc(O)c(OC)c2)c1` (stereo not drawn) [8h] stands “statistically significant activity”.
On the same count and under the same terms, under `COc1cc(CC2CO2)ccc1O` (stereo not drawn) [compound 6, 2-methoxy-4-(oxiran-2-ylmethyl)phenol] stands “did not show inhibitory activity”; under `COc1cc(CC(O)CNc2cccc(Br)c2)ccc1O` (stereo not drawn) [8i], “did not show statistically significant inhibition”.
The same measure, in the same setting: the same measure for `COc1cc(CC(O)CNc2ccc(C#N)cc2)ccc1O` (stereo not drawn) [8f]: “did not show statistically significant inhibition”.
Consider `COc1cc(CC(O)CN(C)c2ccccc2)ccc1O` (stereo not drawn) [8d], for which, under setting [1], the “5-LOX inhibitory activity (in words)” value is given as “statistically significant activity”.
A word on the IC50: it is the point on the concentration scale where inhibition reaches its midpoint. For `COc1cc(CC2CO2)ccc1OCCCOC(C)=O` (stereo not drawn) [5d, 3-(2-methoxy-4-(oxiran-2-ylmethyl)phenoxy)propyl acetate], the IC50 was < 100 µM and 36.9 µM. Further, the “5-LOX inhibitory activity (in words)” value under setting [1] is “highly active”.
Consider `COc1cc(CC(O)COc2ccccc2)ccc1O` (stereo not drawn) [7f], for which the “5-LOX inhibitory activity (in words)” value under setting [1] was “inactive”.
Same read-out and setting: the same measure for `COc1cc(CC(O)CNc2ccccc2)ccc1O` (stereo not drawn) [8e]: “did not show statistically significant inhibition”; for `CCCCCCC(C)NCC(O)Cc1ccc(OC)c(O)c1` (stereo not drawn) [8b]: “did not show statistically significant inhibition”.
Same read-out and setting: under `COc1cc(CC(O)CN2CCCCC2)ccc1O` (stereo not drawn) [8c] stands “did not show statistically significant inhibition”.
`C=CCc1ccc(OCCCC(=O)OCC)c(OC)c1` [4e, ethyl-4-(4-allyl-2-methoxyphenoxy)butanoate]: the IC50 was < 100 µM and 76.2 µM. Further, the “5-LOX inhibitory activity (in words)” value under setting [1] is reported as “statistically significant reduction in 5-LOX activity”.
In the case of `COCC(O)Cc1ccc(O)c(OC)c1` (stereo not drawn) [7a], the “5-LOX inhibitory activity (in words)” value under setting [1] was “inactive”.
For the molecule `COc1cc(CC(O)COC(C)(C)C)ccc1O` (stereo not drawn) [7c, 4-(3-(tert-butoxy)-2-hydroxypropyl)-2-methoxyphenol], the IC50 was < 100 µM and 33.8 µM. Further, the “5-LOX inhibitory activity (in words)” value under setting [1] is “almost full inhibition”.
For the molecule `COc1cc(CC(O)C[N+](=O)[O-])ccc1O` (stereo not drawn) [9a], under setting [1], the “5-LOX inhibitory activity (in words)” value was “did not show statistically significant inhibition”.
In the case of `C=CCc1ccc(O)c(O)c1` [compound 2, 4-allylbenzene-1,2-diol], the IC50 was < 100 µM and 34 µM. The “5-LOX inhibitory activity (in words)” value under setting [1] is given as “promising activity”.
